Target: T1, CD73 (Homo sapiens, UniProt P21589)
T1 sequence (P21589 27-549): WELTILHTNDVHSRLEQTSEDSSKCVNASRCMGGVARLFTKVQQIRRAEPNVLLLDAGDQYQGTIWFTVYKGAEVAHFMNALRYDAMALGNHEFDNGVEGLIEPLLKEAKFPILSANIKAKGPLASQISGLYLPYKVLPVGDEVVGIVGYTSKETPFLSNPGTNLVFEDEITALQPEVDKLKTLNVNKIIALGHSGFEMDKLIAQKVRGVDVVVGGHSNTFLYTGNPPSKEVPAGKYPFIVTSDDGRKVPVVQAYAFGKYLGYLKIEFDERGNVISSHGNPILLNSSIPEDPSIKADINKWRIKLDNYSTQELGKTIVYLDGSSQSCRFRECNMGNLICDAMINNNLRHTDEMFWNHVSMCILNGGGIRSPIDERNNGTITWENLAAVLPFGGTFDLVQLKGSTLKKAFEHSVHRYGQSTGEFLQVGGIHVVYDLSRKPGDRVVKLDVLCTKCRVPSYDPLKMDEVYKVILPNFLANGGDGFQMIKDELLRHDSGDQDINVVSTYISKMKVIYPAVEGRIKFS
Assay: CD73 biochemical assay, Malachite Green detection of AMP hydrolysis
Conditions: CD73 320 pM, AMP 15 μM, Malachite Green readout
Protocol: Assay Reaction Conditions
• Assay Volume: 70 μl • Reaction Volume: 50 μl • CD73: 0.3208 nM • AMP: 15 μM • Assay Buffer: 2 5 mM Tris-HCL, pH 7.4, 0.01% Brij-35, 0.01% BSA, 5 mM MgCl2 Assay Procedure:
A clear 384 well plate was used in this assay.
Made dose titration of testing compounds in assay buffer, 10 points ½ log titrations in duplicates starting at 100 μM. Total volume for each well was 25 μl, with CD73 then added to each well for a final concentration of 320 pM. The solution was then incubated at RT for 15 min. 25 μl of AMP was added to each well for a final concentration of 15 μM, and then incubated at rt for 10 min. 10 μl of Malachite Green Reagent A was then added and allowed to incubate at rt for 10 min. 10 μl of Malachite Green Reagent B was then added and allowed to incubate at rt for 45 min. The absorbance for each sample was read on an Envision plate reader using excitation filter: Cy5 […].
The ability of the compounds disclosed herein to inhibit CD73 activity was quantified and the respective IC50 values were determined. Table 2 provides the biochemical IC50 values of compounds disclosed herein.

SMILES	IC50
O=C(O)COCC(CO)(OC[C@H]1O[C@@H](c2ccc3c(NC4CCCC4)nc(Cl)nn23)[C@H](O)[C@@H]1O)P(=O)(O)O (stereo partly drawn) [Example 23, 2-(2-(((2R,3S,4R,5S)-5-(2-chloro-4-(cyclopentylamino)pyrrolo[2,1-f][1,2,4]triazin-7-yl)-3,4-dihydroxytetrahydrofuran-2-yl)methoxy)-3-hydroxy-2-phosphonopropoxy)acetic acid]	0.5 to 1 nM
O=P(O)(O)C(CO)(COCc1nnn[nH]1)OC[C@H]1O[C@@H](c2cnn3c(NC4CCCC4)cc(Cl)nc23)[C@H](O)[C@@H]1O (some centres unmarked) [Example 38]	≤ 0.5 nM
O=P(O)(O)[C@@](CO)(COCc1nn[nH]n1)OC[C@H]1O[C@@H](c2ccc3c(NCC4CCCC4)nc(Cl)nn23)[C@H](O)[C@@H]1O [Example 46, ((S)-1-((2H-tetrazol-5-yl)methoxy)-2-(((2R,3S,4R,5S)-5-(2-chloro-4-((cyclopentylmethyl)amino)pyrrolo[2,1-f][1,2,4]triazin-7-yl)-3,4-dihydroxytetrahydrofuran-2-yl)methoxy)-3-hydroxypropan-2-yl)phosphonic acid]	≤ 0.5 nM
O=P(O)(O)[C@](CO)(COCc1nn[nH]n1)OC[C@H]1O[C@@H](c2ccc3c(NC4CCCC4)nc(Cl)nn23)[C@H](O)[C@@H]1O [Example 16, ((R)-1-((2H-tetrazol-5-yl)methoxy)-2-(((2R,3S,4R,5S)-5-(2-chloro-4-(cyclopentylamino)pyrrolo[2,1-f][1,2,4]triazin-7-yl)-3,4-dihydroxytetrahydrofuran-2-yl)methoxy)-3-hydroxypropan-2-yl)phosphonic acid]	0.5 to 1 nM
C[C@@](CO)(OC[C@H]1O[C@@H](c2ccc3c(NC4CCCC4)nc(Cl)nn23)[C@H](O)[C@@H]1O)P(=O)(O)O [Example 34, ((R)-2-(((2R,3S,4R,5S)-5-(2-chloro-4-(cyclopentylamino)pyrrolo[2,1-f][1,2,4]triazin-7-yl)-3,4-dihydroxytetrahydrofuran-2-yl)methoxy)-1-hydroxypropan-2-yl)phosphonic acid]	0.5 to 1 nM
COC[C@@](Cc1nn[nH]n1)(OC[C@H]1O[C@@H](c2ccc3c(NC4CCCC4)nc(Cl)nn23)[C@H](O)[C@@H]1O)P(=O)(O)O [Example 4, ((S)-2-(((2R,3S,4R,5S)-5-(2-Chloro-4-(cyclopentylamino)pyrrolo[2,1-f][1,2,4]triazin-7-yl)-3,4-dihydroxytetrahydrofuran-2-yl)methoxy)-1-methoxy-3-(2H-tetrazol-5-yl)propan-2-yl)phosphonic acid]	1 to 100 nM
COC[C@@](C)(OC[C@H]1O[C@@H](c2ccc3c(NC4CCCC4)nc(Cl)nn23)[C@H](O)[C@@H]1O)P(=O)(O)O [Example 31, ((S)-2-(((2R,3S,4R,5S)-5-(2-chloro-4-(cyclopentylamino)pyrrolo[2,1-f][1,2,4]triazin-7-yl)-3,4-dihydroxytetrahydrofuran-2-yl)methoxy)-1-methoxypropan-2-yl)phosphonic acid]	1 to 100 nM
O=P(O)(O)C(CO)(Cc1nn[nH]n1)OC[C@H]1O[C@@H](c2ccc3c(NC4CCCC4)nc(CO)nn23)[C@H](O)[C@@H]1O (some centres unmarked) [Example 21]	0.5 to 1 nM

Results, then the compound that gave them:

IC50	SMILES
≤ 0.5 nM	O=P(O)(O)[C@](COCc1nn[nH]n1)(COCC1CC1)OC[C@H]1O[C@@H](c2ccc3c(NC4CCCC4)nc(Cl)nn23)[C@H](O)[C@@H]1O [Example 35, ((S)-1-((2H-tetrazol-5-yl)methoxy)-2-(((2R,3S,4R,5S)-5-(2-chloro-4-(cyclopentylamino)pyrrolo[2,1-f][1,2,4]triazin-7-yl)-3,4-dihydroxytetrahydrofuran-2-yl)methoxy)-3-(cyclopropylmethoxy)propan-2-yl)phosphonic acid]
1 to 100 nM	COC[C@@](CO)(OC[C@H]1O[C@@H](c2ccc3c(NC4CCCC4)nc(Cl)nn23)[C@H](O)[C@@H]1O)P(=O)(O)O [Example 7, ((S)-2-(((2R,3S,4R,5S)-5-(2-chloro-4-(cyclopentylamino)pyrrolo[2,1-f][1,2,4]triazin-7-yl)-3,4-dihydroxytetrahydrofuran-2-yl)methoxy)-1-hydroxy-3-methoxypropan-2-yl)phosphonic acid]
≤ 0.5 nM	COCC(COCc1nn[nH]n1)(OC[C@H]1O[C@@H](c2cnn3c(NC4CCCC4)cc(Cl)nc23)[C@H](O)[C@@H]1O)P(=O)(O)O (stereo partly drawn) [Example 57, (1-((2H-tetrazol-5-yl)methoxy)-2-(((2R,3S,4R,5S)-5-(5-chloro-7-(cyclopentylamino)pyrazolo[1,5-a]pyrimidin-3-yl)-3,4-dihydroxytetrahydrofuran-2-yl)methoxy)-3-methoxypropan-2-yl)phosphonic acid]
1 to 100 nM	O=P(O)(O)[C@](CO)(Cc1nn[nH]n1)OC[C@H]1O[C@@H](c2ccc3c(NC4CCCC4)nc(Cl)nn23)[C@H](O)[C@@H]1O [Example 2, ((S)-2-(((2R,3S,4R,5S)-5-(2-Chloro-4-(cyclopentylamino)pyrrolo[2,1-f][1,2,4]triazin-7-yl)-3,4-dihydroxytetrahydrofuran-2-yl)methoxy)-1-hydroxy-3-(2H-tetrazol-5-yl)propan-2-yl)phosphonic acid]
1 to 100 nM	O=P(O)(O)C(CO)OC[C@H]1O[C@@H](c2ccc3c(NC4CCCC4)nc(Cl)nn23)[C@H](O)[C@@H]1O (stereo partly drawn) [Example 13, (1-(((2R,3S,4R,5S)-5-(2-chloro-4-(cyclopentylamino)pyrrolo[2,1-f][1,2,4]triazin-7-yl)-3,4-dihydroxytetrahydrofuran-2-yl)methoxy)-2-hydroxyethyl)phosphonic acid]
≤ 0.5 nM	O=P(O)(O)[C@@](CO)(COCc1nn[nH]n1)OC[C@H]1O[C@@H](c2ccc3c(NCC4CCC4)nc(Cl)nn23)[C@H](O)[C@@H]1O [Example 52, ((S)-1-((2H-tetrazol-5-yl)methoxy)-2-(((2R,3S,4R,5S)-5-(2-chloro-4-((cyclobutylmethyl)amino)pyrrolo[2,1-f][1,2,4]triazin-7-yl)-3,4-dihydroxytetrahydrofuran-2-yl)methoxy)-3-hydroxypropan-2-yl)phosphonic acid]
0.5 to 1 nM	COCC(OC[C@H]1O[C@@H](c2ccc3c(NC4CCCC4)nc(Cl)nn23)[C@H](O)[C@@H]1O)P(=O)(O)O (stereo partly drawn) [Example 14, (1-(((2R,3S,4R,5S)-5-(2-chloro-4-(cyclopentylamino)pyrrolo[2,1-f][1,2,4]triazin-7-yl)-3,4-dihydroxytetrahydrofuran-2-yl)methoxy)-2-methoxyethyl)phosphonic acid]
1 to 100 nM	O=P(O)(O)C(CO)(COCc1nnn[nH]1)OC[C@H]1O[C@H](c2cnn3c(NC4CCCC4)cc(Cl)nc23)[C@H](O)[C@@H]1O (stereo partly drawn) [Example 43, (1-((1H-tetrazol-5-yl)methoxy)-2-(((2R,3S,4R,5R)-5-(5-chloro-7-(cyclopentylamino)pyrazolo[1,5-a]pyrimidin-3-yl)-3,4-dihydroxytetrahydrofuran-2-yl)methoxy)-3-hydroxypropan-2-yl)phosphonic acid]
≤ 0.5 nM	COC[C@@](OC[C@H]1O[C@@H](c2ccc3c(NC4CCCC4)nc(Cl)nn23)[C@H](O)[C@@H]1O)(C(=O)O)P(=O)(O)O [Example 42, (S)-2-(((2R,3 S,4R,5S)-5-(2-chloro-4-(cyclopentylamino)pyrrolo[2,1-f][1,2,4]triazin-7-yl)-3,4-dihydroxytetrahydrofuran-2-yl)methoxy)-3-methoxy-2-phosphonopropanoic acid]
≤ 0.5 nM	COC[C@](Cc1nn[nH]n1)(OC[C@H]1O[C@@H](c2ccc3c(NC4CCCC4)nc(Cl)nn23)[C@H](O)[C@@H]1O)P(=O)(O)O (single isomer, unassigned) [Example 3]
0.5 to 1 nM	O=P(O)(O)C(CO)(CO)OC[C@H]1O[C@@H](c2cnn3c(NC4CCCC4)cc(Cl)nc23)[C@H](O)[C@@H]1O [Example 17, (2-(((2R,3S,4R,5S)-5-(5-Chloro-7-(cyclopentylamino)pyrazolo[1,5-a]pyrimidin-3-yl)-3,4-dihydroxytetrahydrofuran-2-yl)methoxy)-1,3-dihydroxypropan-2-yl)phosphonic acid]
≤ 0.5 nM	O=P(O)(O)[C@@](CO)(COCc1nn[nH]n1)OC[C@H]1O[C@@H](c2ccc3c(NCC4CC4)nc(Cl)nn23)[C@H](O)[C@@H]1O [Example 49, ((S)-1-((2H-tetrazol-5-yl)methoxy)-2-(((2R,3S,4R,5S)-5-(2-chloro-4-((cyclopropylmethyl)amino)pyrrolo[2,1-f][1,2,4]triazin-7-yl)-3,4-dihydroxytetrahydrofuran-2-yl)methoxy)-3-hydroxypropan-2-yl)phosphonic acid]

Reference: patent US12544391B2, “CD73 inhibitors” (ORIC Pharmaceuticals, Inc., priority 2019, dated 2026)
